# Experimental data taken from PMC10950897, “VCF1 is a p97/VCP cofactor promoting recognition of ubiquitylated p97-UFD1-NPL4 substrates” (Nature Communications, 2024).
# Tests used:
# [1] = system: GFP-VCF1 WT / N167A interactome, U2OS cells; assay: GFP IP mass spectrometry, comparison of VCF1 WT and N167A interactomes (WT/N167A); type: binding, human; conditions: GFP-VCF1 WT / N167A IPs, partially denaturing RIPA buffer
# Description: (§1) U2OS (catalog no. HTB-96) cells were obtained from ATCC. HEK293-EBNA1-6E cells were a kind gift from Yves Durocher (National Research Council Canada, Montreal, Canada). All mammalian cell lines were cultured under standard conditions at 37 °C and 5% CO2 in DMEM (Thermo) supplemented with 10% FBS (v/v) and penicillin-streptomycin (Thermo). Recombination cloning-compatible U2OS cells were generated using the Flp-In T-Rex Core Kit (Thermo) according to the manufacturer’s instructions and maintained under selection using Blasticidin (Invivogen) and Zeocin (Thermo). To generate cell lines stably expressing GFP-VCF1, U2OS Flp-In T-Rex cells (Thermo) were co-transfected with GFP-VCF1 constructs and pOG44 (Thermo) plasmids, followed by selection with Hygromycin (Invitrogen). Single clones were carefully screened for uniform expression of ectopic GFP-VCF1 at low levels and maintained under selection with Blasticidin and Hygromycin. To induce GFP-VCF1 expression, cells were treated with Doxycycline (DOX) (0.5 µg/ml) for 16 h. U2OS cell lines stably expressing Ub(G76V)-GFP or Ub(G76V)-GFP-20AA were described previously. A U2OS cell line stably expressing Ub(G76V)-GFP-NES was generated under G418 (Invivogen) selection. Clones with low baseline GFP expression were visually screened for low basal GFP expression. All cell lines used in this study were regularly tested negative for mycoplasma infection and were not authenticated.
# (§2) Immunoblotting was performed as previously described. Immunoprecipitation (IP) of HA-tagged proteins was performed using Anti-HA Affinity matrix (Roche) under denaturing conditions, unless otherwise stated. GFP-trap and […] Fab-trap agarose (Chromotek) were used according to manufacturer’s instructions. Cell lysis was performed using RIPA buffer (140 mM NaCl; 10 mM Tris-HCl, pH 8.0; 0.1% sodium deoxycholate; 1% Triton X-100; 0.1% SDS; 1 mM EDTA; 0.5 mM EGTA) or EBC buffer (50 mM Tris, pH 7.5; 150 mM NaCl; 1 mM EDTA; 0.5% NP-40, 1 mM DTT). IPs were washed in non-denaturing buffer (50 mM Tris-HCl, pH 7.5; 150 mM NaCl; 0.5 mM EDTA). Cell lysis and IP under partially denaturing conditions were performed using denaturing buffer (20 mM Tris-HCl, pH 7.5; 50 mM NaCl; 0.5% sodium deoxycholate; 0.5% NP-40; 0.5% SDS; 1 mM EDTA). All lysis and wash buffers were supplemented with 1 mM fresh PMSF Protease Inhibitor (Thermo), complete EDTA-free protease inhibitor Cocktail Tablets (Roche), 1.25 mM N-ethylmaleimide (Sigma) and 50 µM PR-619 (Calbiochem).
# (§3) GFP-Trap agarose (Chromotek) pulldowns were subjected to partial on-bead digestion for peptide elution, by addition of 100 µl of elution buffer (50 mM Tris, pH 7.5; 2 M urea; 2 mM DTT; 20 µg/ml trypsin) and incubation at 37 °C for 30 min. To carry out alkylation, 25 mM CAA was added to the samples, which were then left to digest overnight at room temperature. Digestion was halted by introducing 1% TFA. Purification and desalting of peptides were done using SDB-RPS StageTips. This process required preparing two layers of SDB-RPS with 100 µl of wash buffer (0.2% TFA in H2O), onto which the peptides were loaded. After centrifugation for 5 min at 500 × g, peptides were washed using 150 µl wash buffer, eluted with 50 µl elution buffer (80% ACN; 1% ammonia) and vacuum-dried.
# (§4) Liquid chromatography-mass spectrometry (LC-MS) analysis was conducted using an EASY-nLC-1200 system (Thermo Fisher Scientific), coupled with a timsTOF Pro spectrometer and a nano-electrospray ion source (Bruker Daltonik). […]
# Ub(G76V)-GFP, U2OS cells = assay: QIBC of Ub(G76V)-GFP after siRNA; type: cell-based, human; conditions: siRNA 20 nM, QIBC >10,000 cells
# Description: as §1, with “Clones with low baseline GFP expression were visually screened for low basal GFP expression. All cell lines used in this study were regularly tested negative for mycoplasma infection and were not authenticated.” left out
# Mammalian cells grown on coverslips were fixed in formalin buffer (VWR) for 15 min at room temperature (RT). […] Quantitative image-based cytometry (QIBC) was performed as described. […]
# p97 = assay: GFP IP of GFP-VCF1 alanine mutants from U2OS cells; type: binding, human; conditions: full-length GFP-VCF1, U2OS
# Description: as §2
# [2] = system: p97-UFD1-NPL4 binding to K48-Ub2-7; assay: FLAG IP: p97-UFD1-NPL4 binding to K48-linked ubiquitin chains, purified proteins; type: biochemical, human; conditions: purified proteins, FLAG IP
# Description: (§5) All in vitro binding experiments were performed in EBC or RIPA buffer as indicated. Recombinant Biotin-tagged K48-linked poly-ubiquitin chains (2−7) and K48-linked poly-ubiquitin chains (2−16) were purchased from R&D Systems and Enzo Life Science, respectively. Recombinant proteins were incubated with Strep-Tactin Sepharose (IBA), Glutathione agarose (Gold Biotechnology) or […] Fab-trap agarose (ChromoTek) overnight on an end-over-end rotator at 4 °C, washed six times with EBC or RIPA buffer, and resuspended in 2×Laemmli sample buffer. For p97, VCF1 or p47 pulldowns, antibodies (0.5 µg/sample) were coupled to agarose beads, incubated with recombinant proteins or cell lysates and washed with the indicated buffer. To assess p97-UFD1-NPL4 binding to ubiquitylated proteins in total cell extracts, U2OS cells were lysed in EBC buffer supplemented with protease and phosphatase inhibitors, sonicated and incubated on ice for 10 min. Lysates were cleared by centrifugation for 10 min at 16,100 × g. Cell lysate (40 µg) was added to recombinant proteins in EBC buffer, incubated overnight on the rotator with […] Fab-trap agarose (ChromoTek), and beads were washed six times.
# [3] = system: p97-UFD1-NPL4 binding to ubiquitylated proteins; assay: FLAG IP: p97-UFD1-NPL4 binding to ubiquitylated proteins in U2OS cell extracts; type: biochemical, human; conditions: U2OS total cell extracts, EBC buffer
# Description: as §5
# [4] = system: GFP-VCF1 WT interactome, U2OS cells; assay: GFP IP mass spectrometry of VCF1-interacting proteins, non-denaturing EBC buffer (+DOX/-DOX); type: binding, human
# Description: as §1, §2, §3, §4
# [5] = system: GFP-VCF1 WT interactome, U2OS cells; assay: GFP IP mass spectrometry of VCF1-interacting proteins, partially denaturing RIPA buffer (+DOX/-DOX); type: binding, human
# Description: as §1, with “All cell lines used in this study were regularly tested negative for mycoplasma infection and were not authenticated.” left out
# [6] = system: p97 with poly-ubiquitylated mEos3.2; assay: In vitro p97 unfoldase assay (mEos3.2); type: biochemical, human; conditions: p97 100 nM hexamer, VCF1 300 nM, substrate 35 nM, 37 °C
# Description: Di-ubiquitin-fused mEos3.2 fluorescent protein (diUb-mEos3.2) and ubiquitylation cascade proteins mUbe1, gpc78-ubc7 fusion and ubiquitin were recombinantly expressed in E. coli and purified as described previously. diUb-mEos3.2 substrate was enzymatically polyubiquitylated as described previously. […] The unfolding activity of p97 was monitored in vitro by measuring the decrease in diUb^n-mEos3.2 fluorescence. For this, diUb^n-mEos3.2 (35 nM), p97 (100 nM hexamer), UFD1-NPL4 (500 nM) and VCF1 (300 nM) were mixed as indicated in Eos assay buffer (50 mM HEPES, pH 7.5; 150 mM KCl; 2 mM MgCl2; 5% glycerol; 1 mM DTT) and pre-warmed to 37 °C for 5 min before ATP (2 mM) was added to start the reaction. Unfolding of red mEos3.2 fluorescence was measured every 15 s in a Varian Cary Eclipse spectrofluorometer (excitation: 500 nm; emission: 520 nm) and normalized to the first value after addition of ATP.
# [7] = system: p97 (His6-p97 WT and N-domain mutants); assay: Peptide/protein pulldown with purified WT or mutant His6-p97 (VRM, VIM, VBM, p47); type: binding, human; conditions: peptides on StrepTactin agarose (p47: protein), purified WT or mutant His6-p97, RIPA wash
# Description: All in vitro binding experiments were performed in EBC or RIPA buffer as indicated. Recombinant Biotin-tagged K48-linked poly-ubiquitin chains (2−7) and K48-linked poly-ubiquitin chains (2−16) were purchased from R&D Systems and Enzo Life Science, respectively. Recombinant proteins were incubated with Strep-Tactin Sepharose (IBA), Glutathione agarose (Gold Biotechnology) or […] Fab-trap agarose (ChromoTek) overnight on an end-over-end rotator at 4 °C, washed six times with EBC or RIPA buffer, and resuspended in 2×Laemmli sample buffer. For p97, VCF1 or p47 pulldowns, antibodies (0.5 µg/sample) were coupled to agarose beads, incubated with recombinant proteins or cell lysates and washed with the indicated buffer. To assess p97-UFD1-NPL4 binding to ubiquitylated proteins in total cell extracts, U2OS cells were lysed in EBC buffer supplemented with protease and phosphatase inhibitors, sonicated and incubated on ice for 10 min. Lysates were cleared by centrifugation for 10 min at 16,100 × g. […]
# Peptides were coupled to beads for a minimum of 2 h at 4 °C with rotation, blocked in BSA (New England Biolabs) and washed three times for 1 min, before incubation overnight at 4 °C with whole cell lysate or purified proteins. Beads were then washed three times for 1 min and bound material was eluted in 2×Laemmli sample buffer and analyzed by immunoblotting.
substance,measurement,setting,value
FLNA,Relative protein level (log2) WT/MUT,[1],3.526 log2
G6PD,Relative protein level (log2) WT/MUT,[1],4.291 log2
5’-AGCCAGCUCUUCCAUCUUA-3’ [p47 siRNA],effect on Ub(G76V)-GFP level,"Ub(G76V)-GFP, U2OS cells",had no effect
H174: alanine mutant of residue H174 in full-length VCF1,effect of alanine scan on p97 binding,p97,essential for VCF1 binding to p97
mutation of the VRM: VCF1 with mutated VRM (N167A by Fig. 5c reply),effect on p97-UFD1-NPL4 binding to K48 ubiquitin chains,[2],abrogated
same,effect on p97-UFD1-NPL4 binding to ubiquitylated proteins,[3],abrogated
60S ribosomal protein L19 [RPL19],Relative protein level (log2) WT/noDox,[4],2.902 log2
AHNAK,Relative protein level (log2) WT/MUT,[1],2.811 log2
40S ribosomal protein S29 [RPS29],Relative protein level (log2) WT/noDox,[4],2.611 log2
Transitional endoplasmic reticulum ATPase [VCP],Relative protein level (log2) WT/noDox,[4],3.764 log2
same,Relative protein level (log2) WT/noDox,[5],4.192 log2
same,Relative protein level (log2) WT/MUT,[1],7.367 log2
Histone H3.1 [HIST1H3A;HIST2H3A;HIST3H3;H3F3A;H3F3B],Relative protein level (log2) WT/noDox,[4],5.652 log2
Protein FAM104A,Relative protein level (log2) WT/noDox,[4],4.7326 log2
same,Relative protein level (log2) WT/noDox,[5],3.522 log2
VCF1-p97 complex: complex of VCF1 and p97,unfolding of poly-ubiquitylated mEos3.2 without UFD1-NPL4,[6],unable to unfold a poly-ubiquitylated fluorescent model substrate (mEos3.2)
L170: alanine mutant of residue L170 in full-length VCF1,effect of alanine scan on p97 binding,p97,essential for VCF1 binding to p97
"PTPDLEEKRAKLAEAAERRQKEAAS [VIM, biotinylated VIM peptide of SVIP aa14-39]",dependence of binding on p97 Y143,[7],required for binding to all three motifs
"NLTSEELRKRREAYFEKQQQK [VBM, biotinylated VBM peptide of ATXN3 aa275-295]",dependence of binding on p97 Y143,[7],required for binding to all three motifs
